Assay results as given in PMC7854729 (Nature Communications, 2021).
Where “and” joins values, the source holds several entries; their conditions need not be identical. Equal values may be shown once. Read-outs that look alike come from different tables or passages of the source.

Key:
SARS-CoV-2 = test: microbe, parasite or virus in culture; assay type: cell-based, SARS-CoV-2 (nCoV/Washington/1/2020) in Vero E6 cells; settings: for EC50: Severe acute respiratory syndrome coronavirus 2, Vero C1008, 24 h; for Percent Spike Positive Cells: relative to DMSO treated cells, single replicates
SARS-CoV = settings: cited from earlier work
PLpro from MERS = settings: cited from earlier work
Vero E6 cells = settings: cited from earlier work
SARS-CoV-2 PLpro = SARS-CoV-2 PLpro (Severe acute respiratory syndrome coronavirus 2, UniProt P0DTD1); test: biochemical

For `Cc1ccc(N)cc1C(=O)N[C@H](C)c1cccc2ccccc12` [Compound 1, 5-amino-2-methyl-N-[(1R)-1-naphthalen-1-ylethyl]benzamide], the “inhibition of virus replication” value (SARS-CoV-2) is listed as “inhibiting virus replication”, the EC50 (SARS-CoV-2) is listed as 1.4 ± 0.65 µM and the “potency in SARS-CoV-infected Vero E6 cells” value (SARS-CoV) is listed as “good potency”. The “inhibition of MERS PLpro” value (PLpro from MERS) was “not inhibited” and the “cytotoxicity” value (Vero E6 cells) was “low cytotoxicity”.
For `CCCCNC(=O)Nc1ccc(C)c(C(=O)N[C@H](C)c2cccc3ccccc23)c1` [Compound 5, 5-(butylcarbamoylamino)-2-methyl-N-[(1R)-1-naphthalen-1-ylethyl]benzamide], the IC50 (SARS-CoV-2 PLpro; IC50) was 16.8 µM and 32.8 µM, the “PLpro assay signal (source data Figure 2, single replicates)” value (from here on “PLpro assay signal”) (SARS-CoV-2 PLpro; Log(M) -3.30103, listed as 5 (Snyder539)) was 225 and 216 and 235 and the “PLpro assay signal” value (SARS-CoV-2 PLpro; Log(M) -3.60206, listed as 5 (Snyder539)) was 256 and 292 and 307. The “PLpro assay signal” value (SARS-CoV-2 PLpro; Log(M) -4, listed as 5 (Snyder539)) was 289 and 427 and 447, the “PLpro assay signal” value (SARS-CoV-2 PLpro; Log(M) -4.30103, listed as 5 (Snyder539)) was 464 and 626 and 554 and the “PLpro assay signal” value (SARS-CoV-2 PLpro; Log(M) -4.69897, listed as 5 (Snyder539)) was 802 and 736 and 827. For the same compound, the “PLpro assay signal” value (SARS-CoV-2 PLpro; Log(M) -5, listed as 5 (Snyder539)) was 945 and 917 and 894, the “PLpro assay signal” value (SARS-CoV-2 PLpro; Log(M) -5.39794, listed as 5 (Snyder539)) was 1120 and 1187 and 1137 and the “PLpro assay signal” value (SARS-CoV-2 PLpro; Log(M) -5.69897, listed as 5 (Snyder539)) was 1190 and 1202 and 1324. The “PLpro assay signal” value (SARS-CoV-2 PLpro; Log(M) -6.09691, listed as 5 (Snyder539)) was 1485 and 1470 and 1518, the “PLpro assay signal” value (SARS-CoV-2 PLpro; Log(M) -6.39794, listed as 5 (Snyder539)) was 1389 and 1269 and 1337 and the EC50 (SARS-CoV-2; read-out: EC50) was 2.5 µM. For the same compound, the “inhibition of virus replication” value (SARS-CoV-2; Vero E6, SARS-CoV-2) was “inhibiting virus replication”, the “Percent Spike Positive Cells” value (SARS-CoV-2; [Drug] 0.1 uM) was 115% and the “Percent Spike Positive Cells” value (SARS-CoV-2; [Drug] 1 uM) was 115%. For the same compound, the “Percent Spike Positive Cells” value (SARS-CoV-2; [Drug] 10 uM) was 69% and 115% and 92%.
For `Cc1ccc(NC(=O)Oc2ccc([N+](=O)[O-])cc2)cc1C(=O)N[C@H](C)c1cccc2ccccc12` [Compound 6, 5-(((4-nitrophenoxy)carbonyl)amino)-2-methyl-N-[(1R)-1-naphthalen-1-ylethyl]benzamide], the “PLpro assay signal” value (SARS-CoV-2 PLpro; Log(M) -3.30103, listed as 6 (Snyder538)) was 62 and 61 and 69, the “PLpro assay signal” value (SARS-CoV-2 PLpro; Log(M) -3.60206, listed as 6 (Snyder538)) was 86 and 78 and 83 and the “PLpro assay signal” value (SARS-CoV-2 PLpro; Log(M) -4, listed as 6 (Snyder538)) was 127 and 161 and 203. For the same compound, the “PLpro assay signal” value (SARS-CoV-2 PLpro; Log(M) -4.30103, listed as 6 (Snyder538)) was 120 and 170 and 193, the “PLpro assay signal” value (SARS-CoV-2 PLpro; Log(M) -4.69897, listed as 6 (Snyder538)) was 420 and 406 and 486 and the “PLpro assay signal” value (SARS-CoV-2 PLpro; Log(M) -5, listed as 6 (Snyder538)) was 662 and 534 and 618. The “PLpro assay signal” value (SARS-CoV-2 PLpro; Log(M) -5.39794, listed as 6 (Snyder538)) was 926 and 988 and 896, the “PLpro assay signal” value (SARS-CoV-2 PLpro; Log(M) -5.69897, listed as 6 (Snyder538)) was 1105 and 1269 and 1030 and the “PLpro assay signal” value (SARS-CoV-2 PLpro; Log(M) -6.09691, listed as 6 (Snyder538)) was 1318 and 1309 and 1349. For the same compound, the “PLpro assay signal” value (SARS-CoV-2 PLpro; Log(M) -6.39794, listed as 6 (Snyder538)) was 1380 and 1317 and 1379, the IC50 (SARS-CoV-2 PLpro; pH 7.3, read-out: IC50) was 7 ± 0.6 µM and the “inhibition of virus replication” value (SARS-CoV-2; Vero E6, SARS-CoV-2) was “inhibiting virus replication”. For the same compound, the “Percent Spike Positive Cells” value (SARS-CoV-2; [Drug] 0.1 uM) was 92% and 115% (2×), the “Percent Spike Positive Cells” value (SARS-CoV-2; [Drug] 1 uM) was 115% and the “Percent Spike Positive Cells” value (SARS-CoV-2; [Drug] 10 uM) was 46% and 69%.
With `CCCCC(=O)Nc1ccc(C)c(C(=O)N[C@H](C)c2cccc3ccccc23)c1` [Compound 7, 5-pentanoylamino-2-methyl-N-[(1R)-1-naphthalen-1-ylethyl]benzamide] the “PLpro assay signal” value (SARS-CoV-2 PLpro; Log(M) -3.30103, listed as 7 (Snyder514)) was 189 and 225 and 281, the “PLpro assay signal” value (SARS-CoV-2 PLpro; Log(M) -3.60206, listed as 7 (Snyder514)) was 257 and 276 and 274 and the “PLpro assay signal” value (SARS-CoV-2 PLpro; Log(M) -4, listed as 7 (Snyder514)) was 332 and 331 and 303. For the same compound, the “PLpro assay signal” value (SARS-CoV-2 PLpro; Log(M) -4.30103, listed as 7 (Snyder514)) was 346 and 354 and 361, the “PLpro assay signal” value (SARS-CoV-2 PLpro; Log(M) -4.69897, listed as 7 (Snyder514)) was 672 and 717 and 815 and the “PLpro assay signal” value (SARS-CoV-2 PLpro; Log(M) -5, listed as 7 (Snyder514)) was 856 and 922 and 1036. For the same compound, the “PLpro assay signal” value (SARS-CoV-2 PLpro; Log(M) -5.39794, listed as 7 (Snyder514)) was 1160 and 1233 and 1196, the “PLpro assay signal” value (SARS-CoV-2 PLpro; Log(M) -5.69897, listed as 7 (Snyder514)) was 1260 and 1362 and 1272 and the “PLpro assay signal” value (SARS-CoV-2 PLpro; Log(M) -6.09691, listed as 7 (Snyder514)) was 1429 and 1375 and 1302. The “PLpro assay signal” value (SARS-CoV-2 PLpro; Log(M) -6.39794, listed as 7 (Snyder514)) was 1493 and 1486 and 1598, the IC50 (SARS-CoV-2 PLpro; pH 7.3, read-out: IC50) was 12.7 ± 1.3 µM and the EC50 (SARS-CoV-2; read-out: EC50) was 5.2 ± 4.2 µM. The “inhibition of virus replication” value (SARS-CoV-2; Vero E6, SARS-CoV-2) was “inhibiting virus replication”, the “Percent Spike Positive Cells” value (SARS-CoV-2; [Drug] 0.1 uM) was 115% (2×) and 92% and the “Percent Spike Positive Cells” value (SARS-CoV-2; [Drug] 1 uM) was 69% (2×) and 115%. For the same compound, the “Percent Spike Positive Cells” value (SARS-CoV-2; [Drug] 10 uM) was 46% and 23% and 35%.
